From patent publication USRE48711E1, “Apoptosis signal-regulating kinase inhibitors” (Gilead Sciences, Inc., priority 2009, dated 2021)

Biological target: ASK1 (Apoptosis Signal-Regulating Kinase 1) (Homo sapiens (Human), UniProt Q99683)
Assay: ASK1 (Apoptosis Signal-Regulating Kinase 1) TR-FRET Kinase Assay (Biochemical IC50)
Conditions: TR-FRET, biotin-MBP substrate, 20 min pre-incubation, ATP added as 300 μM solution

Chain of ASK1 (Apoptosis Signal-Regulating Kinase 1) (Q99683 649-946): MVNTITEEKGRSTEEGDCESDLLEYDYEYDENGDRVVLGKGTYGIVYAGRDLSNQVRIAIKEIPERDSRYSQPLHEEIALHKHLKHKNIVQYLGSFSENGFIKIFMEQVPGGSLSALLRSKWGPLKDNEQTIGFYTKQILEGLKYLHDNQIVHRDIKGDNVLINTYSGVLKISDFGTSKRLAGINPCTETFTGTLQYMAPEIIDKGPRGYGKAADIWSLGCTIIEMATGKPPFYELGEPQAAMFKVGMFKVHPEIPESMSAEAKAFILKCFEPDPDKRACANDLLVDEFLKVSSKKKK

SMILES | IC50 [nM]
O=C(Nc1cccc(-c2nncn2C2CC2)c1)c1cc(-c2ccc(C3CC3)nc2)ccn1 [Example 50, 6-cyclopropyl-N-(3-(4-cyclopropyl-4H-1,2,4-triazol-3-yl)phenyl)-3,4′-bipyridine-2′-carboxamide] | 8
COc1ncc(-c2ccnc(C(=O)Nc3cccc(-c4nncn4C4CC4)c3)c2)c(OC)n1 [Example 49, N-(3-(4-cyclopropyl-4H-1,2,4-triazol-3-yl)phenyl)-4-(2,4-dimethoxypyrimidin-5-yl)picolinamide] | 8
Cc1ncn(-c2cccc(C(=O)Nc3cccc(-c4nncn4C4CC4)n3)c2)c1C [Example 211, N-(6-(4-cyclopropyl-4H-1,2,4-triazol-3-yl)pyridin-2-yl)-3-(4,5-dimethyl-1H-imidazol-1-yl)benzamide] | 9
CC(C)N1CCc2ncc(-c3ccnc(C(=O)Nc4cccc(-c5nncn5C5CC5)c4)c3)cc2C1 [Example 172, N-(3-(4-cyclopropyl-4H-1,2,4-triazol-3-yl)phenyl)-4-(6-isopropyl-5,6,7,8-tetrahydro-1,6-naphthyridin-3-yl)picolinamide] | 17
C[C@H](CO)n1cnnc1-c1cccc(NC(=O)c2cc(-c3cccnc3)ccn2)c1 [Example 19, (R)-N-(3-(4-(1-hydroxypropan-2-yl)-4H-1,2,4-triazol-3-yl)phenyl)-3,4′-bipyridine-2′-carboxamide] | 9
COc1ccc(-c2ccc(C3CC3)nc2)cc1C(=O)Nc1cccc(-c2nncn2C2CC2)c1 [Example 271, N-(3-(4-cyclopropyl-4H-1,2,4-triazol-3-yl)phenyl)-5-(6-cyclopropylpyridin-3-yl)-2-methoxybenzamide] | 24
O=C(Nc1cccc(-c2nncn2C2CC2)c1)c1cc(-c2nnc(C3CC3)s2)ccn1 [Example 270, 4-(5-cyclopropyl-1,3,4-thiadiazol-2-yl)-N-(3-(4-cyclopropyl-4H-1,2,4-triazol-3-yl)phenyl)picolinamide] | 107
O=C(Nc1cccc(-c2nncn2CC(F)(F)F)c1)c1cc(-c2cccnc2)ccn1 [Example 58, N-(3-(4-(2,2,2-trifluoroethyl)-4H-1,2,4-triazol-3-yl)phenyl)-3,4′-bipyridine-2′-carboxamide] | 290
CS(=O)(=O)c1ccccc1-c1ccnc(C(=O)Nc2cccc(-c3nncn3C3CC3)c2)c1 [Example 78, N-(3-(4-cyclopropyl-4H-1,2,4-triazol-3-yl)phenyl)-4-(2-(methylsulfonyl)phenyl)picolinamide] | 572
CS(=O)(=O)c1ccc(-c2ccnc(C(=O)Nc3cccc(-c4nncn4C4CC4)n3)c2)cc1 [Example 101, N-(6-(4-cyclopropyl-4H-1,2,4-triazol-3-yl)pyridin-2-yl)-4-(4-(methylsulfonyl)phenyl)picolinamide] | 7
Cn1cnnc1-c1cccc(NC(=O)c2cncc(-c3cccnc3)c2)c1 [Example 8, N-(3-(4-methyl-4H-1,2,4-triazol-3-yl)phenyl)-3,3′-bipyridine-5-carboxamide] | 220
O=C(Nc1ccc(F)c(-c2nncn2C2CC2)c1)c1cc(-c2ccc(C3CC3)nc2)ccn1 [Example 147, 6-cyclopropyl-N-(3-(4-cyclopropyl-4H-1,2,4-triazol-3-yl)-4-fluorophenyl)-3,4′-bipyridine-2′-carboxamide] | 400
CC(C)CSc1ccc(-c2ccnc(C(=O)Nc3cccc(-c4nncn4C4CC4)c3)c2)cn1 [Example 132, N-(3-(4-cyclopropyl-4H-1,2,4-triazol-3-yl)phenyl)-6-(isobutylthio)-3,4′-bipyridine-2′-carboxamide] | 150
Cc1cccc(C)c1OC[C@H](C)n1cnnc1-c1cccc(NC(=O)c2cc(-c3ccc(C4CC4)nc3)ccn2)c1 [Example 239, (S)-6-cyclopropyl-N-(3-(4-(1-(2,6-dimethylphenoxy)propan-2-yl)-4H-1,2,4-triazol-3-yl)phenyl)-3,4′-bipyridine-2′-carboxamide] | 10900
C[C@@H](C1CC1)n1cnnc1-c1cccc(NC(=O)c2cc(-c3ccc(C4CC4)nc3)ccn2)c1 [Example 230, (S)-6-cyclopropyl-N-(3-(4-(1-cyclopropylethyl)-4H-1,2,4-triazol-3-yl)phenyl)-3,4′-bipyridine-2′-carboxamide] | 58
C[C@@H](c1ccccc1)n1cnnc1-c1cccc(NC(=O)c2cccc(-n3cnc(C4CC4)c3)c2)n1 [Example 217, (S)-3-(4-cyclopropyl-1H-imidazol-1-yl)-N-(6-(4-(1-phenylethyl)-4H-1,2,4-triazol-3-yl)pyridin-2-yl)benzamide] | 14
CCc1ncc(-c2ccnc(C(=O)Nc3cccc(-c4nncn4C4CC4)c3)c2)cn1 [Example 145, N-(3-(4-cyclopropyl-4H-1,2,4-triazol-3-yl)phenyl)-4-(2-ethylpyrimidin-5-yl)picolinamide] | 7
O=C(Nc1cccc(-c2nncn2C2CC2)n1)c1cc(-n2cnc(C3CC3)n2)ccn1 [Example 201, 4-(3-cyclopropyl-1H-1,2,4-triazol-1-yl)-N-(6-(4-cyclopropyl-4H-1,2,4-triazol-3-yl)pyridin-2-yl)picolinamide] | 14

SMILES | IC50 [nM]
CS(=O)(=O)c1ccc(-c2ccnc(C(=O)Nc3cccc(-c4nncn4C4CC4)c3)c2)cc1 [Example 79, N-(3-(4-cyclopropyl-4H-1,2,4-triazol-3-yl)phenyl)-4-(4-(methylsulfonyl)phenyl)picolinamide] | 6
COc1ccc(C(=O)Nc2cccc(-c3nncn3C3CC3)n2)cc1-n1cnc(C2CC2)c1 [Example 228, 3-(4-cyclopropyl-1H-imidazol-1-yl)-N-(6-(4-cyclopropyl-4H-1,2,4-triazol-3-yl)pyridin-2-yl)-4-methoxybenzamide] | 7
CS(=O)(=O)N1CCN(c2ccnc(C(=O)Nc3cccc(-c4nncn4C4CC4)c3)c2)CC1 [Example 137, N-(3-(4-cyclopropyl-4H-1,2,4-triazol-3-yl)phenyl)-4-(4-(methylsulfonyl)piperazin-1-yl)picolinamide] | 31
CCCc1ccc(-c2ccnc(C(=O)Nc3cccc(-c4nncn4C4CC4)c3)c2)cn1 [Example 114, N-(3-(4-cyclopropyl-4H-1,2,4-triazol-3-yl)phenyl)-6-propyl-3,4′-bipyridine-2′-carboxamide] | 5
O=C(Nc1cccc(-c2nncn2C2CC2)n1)c1cccc(-c2ccc(C3CC3)nc2)c1 [Example 151, N-(6-(4-cyclopropyl-4H-1,2,4-triazol-3-yl)pyridin-2-yl)-3-(6-cyclopropylpyridin-3-yl)benzamide] | 8
CCc1cn(-c2ccnc(C(=O)Nc3cccc(-c4nncn4C4CC4)c3)c2)cn1 [Example 158, N-(3-(4-cyclopropyl-4H-1,2,4-triazol-3-yl)phenyl)-4-(4-ethyl-1H-imidazol-1-yl)picolinamide] | 5
O=C(Nc1cccc(-c2cncn2C2CC2)c1)c1cc(-n2cnc3ccccc32)ccn1 [Example 88, 4-(1H-benzo[d]imidazol-1-yl)-N-(3-(1-cyclopropyl-1H-imidazol-5-yl)phenyl)picolinamide] | 35
O=C(Nc1cccc(-c2nncn2C2CC2)c1)c1cc(-n2cncn2)ccn1 [Example 28, N-(3-(4-cyclopropyl-4H-1,2,4-triazol-3-yl)phenyl)-4-(1H-1,2,4-triazol-1-yl)picolinamide] | 110
O=C(Nc1cccc(-c2nncn2C2CC2)c1)c1cc(-n2cnc(C(F)(F)F)c2)ccn1 [Example 44, N-(3-(4-cyclopropyl-4H-1,2,4-triazol-3-yl)phenyl)-4-(4-(trifluoromethyl)-1H-imidazol-1-yl)picolinamide] | 27
CC(C)(O)c1ccc(-c2cccc(C(=O)Nc3cccc(-c4nncn4C4CC4)n3)c2)cn1 [Example 204, N-(6-(4-cyclopropyl-4H-1,2,4-triazol-3-yl)pyridin-2-yl)-3-(6-(2-hydroxypropan-2-yl)pyridin-3-yl)benzamide] | 17
C[C@H](n1cnnc1-c1cccc(NC(=O)c2cc(-c3ccc(C4CC4)nc3)ccn2)n1)C(F)(F)F [Example 179, (S)-6-cyclopropyl-N-(6-(4-(1,1,1-trifluoropropan-2-yl)-4H-1,2,4-triazol-3-yl)pyridin-2-yl)-3,4′-bipyridine-2′-carboxamide] | 19
O=C(Nc1cccc(-c2nncn2C2CC2)c1)c1cc(-n2cnc3cccnc32)ccn1 [Example 82, N-(3-(4-cyclopropyl-4H-1,2,4-triazol-3-yl)phenyl)-4-(3H-imidazo[4,5-b]pyridin-3-yl)picolinamide] | 20
O=C(Nc1cccc(-c2nncn2C2CC2)n1)c1cc(-c2ccc(C3CC3)nc2)ccn1 [Example 100, 6-cyclopropyl-N-(6-(4-cyclopropyl-4H-1,2,4-triazol-3-yl)pyridin-2-yl)-3,4′-bipyridine-2′-carboxamide] | 6
O=C(Nc1cccc(-c2nncn2C2CC2)n1)c1cc(-n2cnc(C(F)(F)F)c2)ccn1 [Example 188, N-(6-(4-cyclopropyl-4H-1,2,4-triazol-3-yl)pyridin-2-yl)-4-(4-(trifluoromethyl)-1H-imidazol-1-yl)picolinamide] | 6
N#Cc1cncc(-c2ccnc(C(=O)Nc3cccc(-c4nncn4C4CC4)c3)c2)c1 [Example 65, 5-cyano-N-(3-(4-cyclopropyl-4H-1,2,4-triazol-3-yl)phenyl)-3,4′-bipyridine-2′-carboxamide] | 30
Nc1ccc(-c2ccnc(C(=O)Nc3cccc(-c4nncn4C4CC4)c3)c2)cn1 [Example 22, 6-amino-N-(3-(4-cyclopropyl-4H-1,2,4-triazol-3-yl)phenyl)-3,4′-bipyridine-2′-carboxamide] | 9
COC[C@H](C)n1cnnc1-c1cccc(NC(=O)c2cc(-c3ccc(C4CC4)nc3)ccn2)n1 [Example 234, (S)-6-cyclopropyl-N-(6-(4-(1-methoxypropan-2-yl)-4H-1,2,4-triazol-3-yl)pyridin-2-yl)-3,4′-bipyridine-2′-carboxamide] | 8
O=C(Nc1cccc(-c2nncn2C2CC2)c1)c1cc(-c2ccc(CC(F)(F)F)nc2)ccn1 [Example 171, N-(3-(4-cyclopropyl-4H-1,2,4-triazol-3-yl)phenyl)-6-(2,2,2-trifluoroethyl)-3,4′-bipyridine-2′-carboxamide] | 7
